Measurements published in US20140364453A1, “SALUBRINAL-DRIVEN ATTENUATION OF MALIGNANT PHENOTYPES OF 4T1 BREAST CANCER CELLS” (Indiana University Research and Technology Corporation, priority 2013, published 2014).

What was measured:
[1] = system: NFATc1, TRAP, OSCAR, c-fos, MMP9, and cathepsin K; experiment: Relative mRNA abundance in primary mouse bone marrow cells; format: cell-based; settings: 10 μM; 24 h
4T1 cells [2] = experiment: In vitro invasion assay (Boyden chamber, Matrigel), 4T1 cells; format: cell-based, mouse; settings: for number of cells invaded through the filter coated with Matrigel: 4T1 cells, 24 h, regardless of serum, 10-50 μM salubrinal, 5-50 μM guanabenz
Description: (§1) 4T1 mouse mammary tumor cells and MDA-MB-231 human breast cancer cells were cultured in DMEM containing 10% fetal bovine serum and antibiotics (50 units/ml penicillin, and 50 μg/ml streptomycin; Life Technologies, Grand Island, N.Y., USA). Cells were maintained at 37° C. and 5% CO2 in a humidified incubator. Responses to administration of 10-50 μM salubrinal or 5-50 μM guanabenz acetate (Tocris Bioscience, Ellisville, Mo., USA) were evaluated using assays for MTT, adhesion, invasion, and motility. An invasion assay was performed with a Boyden chamber with minor modifications of the usual procedure. In brief, Matrigel (BD Biosciences) was diluted with ice-cold PBS (100 μg/ml). Six-hundred μl of Matrigel was added to each filter (polyethylene terephthalate membrane, 8-μm pore size, 23.1 mm in diameter, Falcon) and left to polymerize overnight. Prior to assembling the chamber unit, the lower chamber (6-well plate, Falcon) was filled with culture medium consisting of salubrinal or guanabenz. Cells (1˜4×10^5/well) were added to the culture medium with salubrinal or guanabenz in the upper chamber and incubated for 24 h. The cells on the filter surface were stained with Giemsa (Sigma-Aldrich) and the number of cells was counted under the microscope.

[3] = system: primary mouse bone marrow cells; experiment: Osteoclastogenesis in primary mouse bone marrow cells; format: cell-based; settings: 10 or 20 μM; 3 days
NFATc1 = NFATc1 protein expression in primary mouse bone marrow cells; format: cell-based; settings: 10 or 20 μM; 2 days
4T1 cells [4] = experiment: Two-dimensional wound healing scratch motility assay, 4T1 cells; format: cell-based, mouse; settings: for cell motility (scratch-wound assay): 4T1 cells, 20 or 50 μM, 24 h
Description: (§2) 4T1 mouse mammary tumor cells and MDA-MB-231 human breast cancer cells were cultured in DMEM containing 10% fetal bovine serum and antibiotics (50 units/ml penicillin, and 50 μg/ml streptomycin; Life Technologies, Grand Island, N.Y., USA). Cells were maintained at 37° C. and 5% CO2 in a humidified incubator. Responses to administration of 10-50 μM salubrinal or 5-50 μM guanabenz acetate (Tocris Bioscience, Ellisville, Mo., USA) were evaluated using assays for MTT, adhesion, invasion, and motility. To evaluate 2-dimensional motility, a wound healing scratch motility assay was carried out. In brief, cells were plated in 12-well plates or 6-cm dishes (Falcon) and on the next day, scratching was performed using a plastic tip. The areas newly occupied with cells in the scratched zone were determined every 3 h up to 24 h using images obtained by a microscope, which were scanned with Adobe Photoshop (CS2, Adobe Systems, San Jose, Calif., USA) and quantified with Image J.

[5] = system: 4T1 mouse mammary tumor cells; experiment: MTT assay, 4T1 cells; format: cell-based
Description: (§3) 4T1 mouse mammary tumor cells and MDA-MB-231 human breast cancer cells were cultured in DMEM containing 10% fetal bovine serum and antibiotics (50 units/ml penicillin, and 50 μg/ml streptomycin; Life Technologies, Grand Island, N.Y., USA). Cells were maintained at 37° C. and 5% CO2 in a humidified incubator. Responses to administration of 10-50 μM salubrinal or 5-50 μM guanabenz acetate (Tocris Bioscience, Ellisville, Mo., USA) were evaluated using assays for MTT, adhesion, invasion, and motility. Cells (5×10^2/well) were seeded in 96-well plates, and the reduction of MTT to formazan was evaluated by measuring the absorbance at 570 nm with a plate reader (EL800, BioTek, Winooski, Vt., USA).

cleaved caspase 3 [6] = experiment: Western blot of cleaved caspase 3, 4T1 cells; format: cell-based, mouse; settings: absence and presence of 10% serum, 10-50 μM salubrinal, 5-50 μM guanabenz
Description: (§4) 4T1 mouse mammary tumor cells and MDA-MB-231 human breast cancer cells were cultured in DMEM containing 10% fetal bovine serum and antibiotics (50 units/ml penicillin, and 50 μg/ml streptomycin; Life Technologies, Grand Island, N.Y., USA). Cells were maintained at 37° C. and 5% CO2 in a humidified incubator. Responses to administration of 10-50 μM salubrinal or 5-50 μM guanabenz acetate (Tocris Bioscience, Ellisville, Mo., USA) were evaluated using assays for MTT, adhesion, invasion, and motility. Cells were lysed in a radioimmunoprecipitation assay (RIPA) buffer containing protease inhibitors (Santa Cruz Biotechnology, Santa Cruz, Calif., USA) and phosphatase inhibitors (Calbiochem, Billerica, Mass., USA). Isolated proteins were fractionated using 10-15% SDS gels and electro-transferred to Immobilon-P membranes (Millipore, Billerica, Mass., USA). The membrane was incubated for 1 h with primary antibodies followed by 45 min incubation with goat anti-rabbit or anti-mouse IgG conjugated with horseradish peroxidase (Cell Signaling, Danvers, Mass., USA). […] Protein levels were assayed using a SuperSignal west femto maximum sensitivity substrate (Thermo Scientific, Waltham, Mass., USA), and signal intensities were quantified with a luminescent image analyzer (LAS-3000, Fuji Film, Tokyo, Japan).

4T1 cells [7] = experiment: Cell adhesion assay, 4T1 cells; format: cell-based, mouse; settings: surfaces coated with poly-L-lysine, type I collagen, fibronectin, laminin; 30 min and 3 h
Description: 4T1 mouse mammary tumor cells and MDA-MB-231 human breast cancer cells were cultured in DMEM containing 10% fetal bovine serum and antibiotics (50 units/ml penicillin, and 50 μg/ml streptomycin; Life Technologies, Grand Island, N.Y., USA). Cells were maintained at 37° C. and 5% CO2 in a humidified incubator. Responses to administration of 10-50 μM salubrinal or 5-50 μM guanabenz acetate (Tocris Bioscience, Ellisville, Mo., USA) were evaluated using assays for MTT, adhesion, invasion, and motility. Ninety-six well plates were coated with poly-L-lysine, fibronectin, laminin (Sigma-Aldrich, St. Louis, Mo., USA), or type I collagen (BD Biosciences, Bedford, Mass., USA) for 2 h. The plates were then incubated with non-fat dry milk, followed by washing with PBS and serum-free culture medium. Cells (1×10^4/well) were added on the plate, and after 30 min and 3 h the attached cells were stained with 0.04% crystal violet (Sigma-Aldrich) for 10 min at room temperature. The wells were washed with PBS, and DMSO was added. Absorbance at 550 nm was measured using the plate reader.

[8] = system: MDA-MB-231 human breast cancer cells; experiment: Scratch motility assay, MDA-MB-231 cells; format: cell-based; settings: 20 or 50 μM salubrinal, 24 h, 10% serum
Description: as §2

[9] = system: 4T1 mouse mammary tumor cells; experiment: In vivo tumor growth, BALB/c mice injected with 4T1 cells; settings: 4T1 cells s.c., 25 μg salubrinal s.c. daily, day 20, mean±S.D., N=18
Description: Experimental procedures were approved by the Indiana University Animal Care and Use Committee and were in compliance with the Guiding Principles in the Care and Use of Animals endorsed by the American Physiological Society. Five mice were housed per cage, and fed with mouse chow and water ad libitum. Thirty-five BALB/c female mice (6 weeks, Harlan Laboratories) were used. Mice received subcutaneous injection of 4T1 mouse mammary tumor cells (10^6 cells in 100 μl PBS) to the abdomen on day 1. Twenty-five μg of salubrinal was administered subcutaneously into the area of cell injection every day, while the control animals received a vehicle. The animals were sacrificed on day 20, and the volume and weight of tumors were determined. The tumor volume was calculated as (long diameter)×(short diameter)^2/2.

[10] = system: MDA-MB-231 human breast cancer cells; experiment: In vitro invasion assay, MDA-MB-231 cells; format: cell-based; settings: 20 or 50 μM salubrinal, 24 h, absence of serum
Description: as §1

[11] = system: MDA-MB-231 human breast cancer cells; experiment: MTT assay, MDA-MB-231 cells; format: cell-based; settings: 20 or 50 μM salubrinal
Description: as §3

Rac1 GTPase [12] = experiment: FRET-based Rac1 activity imaging, MDA-MB-231 cells; format: cell-based, human; settings: 20 μM salubrinal
Description: (§5) To visualize Rac1 activity in response to salubrinal, FRET imaging was conducted using a cyan fluorescent protein (CFP)-yellow fluorescent protein (YFP) Rac1 biosensor. The filter sets (Semrock) were chosen for CFP excitation at 438±24 nm (center wavelength±bandwidth), CFP emission at 483±32 nm, and YFP emission at 542±27 nm. Time-lapse images were acquired at an interval of 5 min using a fluorescence microscope (Nikon, Tokyo, Japan). The level of Rac1 activity was determined by computing an emission ratio of YFP/CFP for individual cells using NIS-Elements software (Nikon).

Rac1 GTPase [13] = experiment: FRET-based Rac1 activity imaging, 4T1 cells; format: cell-based, mouse; settings: 20 μM salubrinal
Description: as §5

cleaved caspase 3 [14] = experiment: Western blot of cleaved caspase 3, MDA-MB-231 cells; format: cell-based, human; settings: 20 or 50 μM salubrinal, absence of serum
Description: as §4

| SMILES | mRNA levels of NFATc1, TRAP, OSCAR, c-fos, MMP9, and cathepsin K [1] | number of cells invaded through the filter coated with Matrigel (4T1 cells [2]) | TRAP-positive multi-nucleated cells [3] | development of osteoclasts [3] | NFATc1 protein expression (NFATc1) | cell motility (scratch-wound assay) (4T1 cells [4]) | level of cleaved caspase 3 (cleaved caspase 3 [6]) | cell adhesion (absorbance reading, number of adherent cells) (4T1 cells [7]) | other results |
| --- | --- | --- | --- | --- | --- | --- | --- | --- | --- |
| N=C(N)N/N=C/c1c(Cl)cccc1Cl [guanabenz] | reduced | significantly reduced | Reduction | Reduced development of osteoclasts | Suppression | reduced in a dose dependent manner | elevated | did not significantly change | number of live 4T1 cells (MTT) ([5]; 50 μM guanabenz): decreased |
| O=C(/C=C/c1ccccc1)NC(NC(=S)Nc1cccc2cccnc12)C(Cl)(Cl)Cl (stereo not drawn) [salubrinal] | reduced | significantly reduced | Reduction | Reduced development of osteoclasts | Suppression | reduced in a dose dependent manner | elevated | did not significantly change | salubrinal-driven reduction in cell invasion (4T1 cells [2]; 4T1 cells treated with eIF2α siRNA vs NC siRNA, 20 or 50 μM salubrinal): significantly suppressed; cell invasion (4T1 cells [2]; 4T1 control cells treated with NC siRNA, 20 or 50 μM salubrinal): reduced by salubrinal in a dose dependent manner; cell motility [8]: Reduction in cell motility; tumor volume [9]: 384.5±248.1 mm^3; tumor weight [9]: 0.32 ± 0.24 g; salubrinal-driven reduction in cell motility (4T1 cells [4]; 4T1 cells treated with eIF2α siRNA, 20 or 50 μM salubrinal): also suppressed; cell invasion [10]: Reduction in cell invasion; proliferation (relative cell growth) [11]: inhibitory effects; Rac1 activity (emission ratio of YFP/CFP) (Rac1 GTPase [12]): decreased; salubrinal-driven reduction in Rac1 activity (Rac1 GTPase [13]; 4T1 cells transfected with eIF2α siRNA): significantly suppressed; Rac1 activity (emission ratio of YFP/CFP) (Rac1 GTPase [13]; 4T1 cells): decreased; number of live 4T1 cells (MTT) ([5]; 10, 20, and 50 μM salubrinal): reduced in a dose dependent manner; cleaved caspase 3 (cleaved caspase 3 [14]): Dose-dependent elevation |
